Laboratory results reported in US20230167122A1, “PESTICIDALLY ACTIVE HETEROCYCLIC DERIVATIVES WITH SULFUR CONTAINING SUBSTITUENTS” (SYNGENTA CROP PROTECTION AG, priority 2020, published 2023).

Key:
Assay type in all cases: in vivo
[1] = test system: Nilaparvata lugens (Brown Plant Hopper); assay: Example B12: Activity against Nilaparvata lugens (brown plant hopper), larvicide, systemic into water; conditions: 168 h, application rate of 12.5 ppm, systemic into nutritive solution, rice plants, N3 nymphs, 7 days after infestation
Procedure: Example B12: Activity Against Nilaparvata lugens (Brown Plant Hopper) Larvicide, Systemic into Water
Rice plants cultivated in a nutritive solution were treated with the diluted test solutions into nourishing cultivation system. 1 day after application plants were infested with ˜20 N3 nymphs. 7 days after infestation samples were assessed for mortality and growth regulation.

[2] = test system: Plutella xylostella (Diamond Back Moth); assay: Example B8: Activity against Plutella xylostella (diamond back moth), L2 larvae, artificial diet; conditions: 120 h, application rate of 200 ppm, 5 days after infestation, read-out: effect in at least one of the two categories (mortality or growth inhibition)
Procedure: Example B8: Activity Against Plutella xylostella (Diamond Back Moth)
(§1) 24-well microtiter plates with artificial diet were treated with aqueous test solutions prepared from 10′000 ppm DMSO stock solutions by pipetting. After drying, the plates were infested with L2 larvae (10 to 15 per well). The samples were assessed for mortality and growth inhibition in comparison to untreated samples 5 days after infestation.

[3] = test system: Diabrotica balteata (Corn Root Worm); assay: Example B2: Activity against Diabrotica balteata (corn root worm), sprayed maize sprouts; conditions: 96 h, application rate of 200 ppm, L2 larvae on maize sprouts, 4 days after infestation, read-out: effect in at least one of the two categories (mortality or growth inhibition)
Procedure: Example B2: Activity Against Diabrotica balteata (Corn Root Worm)
as §1, with “Maize sprouts placed onto an agar layer in 24-well” for “24-well”, “plates” for “plates with artificial diet”, “spraying.” for “pipetting.”, “(6” for “(10”, “10” for “15”, “4” for “5”

[4] = test system: Nilaparvata lugens (Brown Plant Hopper); assay: Example B11: Activity against Nilaparvata lugens (brown plant hopper), larvicide, feeding/contact; conditions: 168 h, application rate of 50 ppm, N3 nymphs on sprayed rice plants, 7 days after the treatment
Procedure: Example B11: Activity Against Nilaparvata lugens (Brown Plant Hopper) Larvicide, Feeding/Contact
Rice plants were treated with the diluted test solutions in a spray chamber. After drying plants were infested with ˜20 N3 nymphs. 7 days after the treatment samples were assessed for mortality and growth regulation.

[5] = test system: Myzus persicae (Green Peach Aphid); assay: Example B6: Activity against Myzus persicae (green peach aphid), sprayed sunflower leaf discs; conditions: foliar, 144 h, application rate of 200 ppm, aphid population of mixed ages on sunflower leaf discs, 6 days after infestation
Procedure: Example B6: Activity Against Myzus persicae (Green Peach Aphid)
Sunflower leaf discs were placed on agar in a 24-well microtiter plate and sprayed with aqueous test solutions prepared from 10′000 ppm DMSO stock solutions. After drying, the leaf discs were infested with an aphid population of mixed ages. The samples were assessed for mortality 6 days after infestation.

[6] = test system: Euschistus heros (Neotropical Brown Stink Bug); assay: Example B3: Activity against Euschistus heros (neotropical brown stink bug), sprayed soybean leaf; conditions: 120 h, application rate of 200 ppm, N-2 nymphs on soybean leaf, 5 days after infestation, read-out: effect in at least one of the two categories (mortality or growth inhibition)
Procedure: Example B3: Activity Against Euschistus heros (Neotropical Brown Stink Bug)
Soybean leaf on agar in 24-well microtiter plates were sprayed with aqueous test solutions prepared from 10′000 ppm DMSO stock solutions. After drying the leaf were infested with N-2 nymphs. The samples were assessed for mortality and growth inhibition in comparison to untreated samples 5 days after infestation.

[7] = test system: Myzus persicae (Green Peach Aphid); assay: Example B7: Activity against Myzus persicae (green peach aphid), roots of pea seedlings in test solution; conditions: 144 h, test rate of 24 ppm, roots of infested pea seedlings in test solution, 6 days
Procedure: Example B7: Activity Against Myzus persicae (Green Peach Aphid)
Roots of pea seedlings infested with an aphid population of mixed ages were placed directly in the aqueous test solutions prepared from 10′000 DMSO stock solutions. The samples were assessed for mortality 6 days after placing seedlings in test solutions.

[8] = test system: Bemisia tabaci (Cotton White Fly); assay: Example B1: Activity against Bemisia tabaci (cotton white fly), sprayed cotton leaf discs; conditions: foliar, 144 h, application rate of 200 ppm, adult white flies on cotton leaf discs, 6 days after incubation
Procedure: Example B1: Activity Against Bemisia tabaci (Cotton White Fly)
Cotton leaf discs were placed on agar in 24-well microtiter plates and sprayed with aqueous test solutions prepared from 10′000 ppm DMSO stock solutions. After drying the leaf discs were infested with adult white flies. The samples were checked for mortality 6 days after incubation.

[9] = test system: Spodoptera littoralis (Egyptian Cotton Leaf Worm); assay: Example B9: Activity against Spodoptera littoralis (Egyptian cotton leaf worm), sprayed cotton leaf discs; conditions: foliar, 72 h, application rate of 200 ppm, L1 larvae on cotton leaf discs, 3 days after infestation
Procedure: Example B9: Activity Against Spodoptera littoralis (Egyptian Cotton Leaf Worm)
Cotton leaf discs were placed onto agar in 24-well microtiter plates and sprayed with aqueous test solutions prepared from 10′000 ppm DMSO stock solutions. After drying the leaf discs were infested with five L1 larvae. The samples were assessed for mortality, anti-feeding effect, and growth inhibition in comparison to untreated samples 3 days after infestation. Control of Spodoptera littoralis by a test sample is given when at least one of the categories mortality, anti-feedant effect, and growth inhibition is higher than the untreated sample.

[10] = test system: Carpocapsa (Cydia) pomonella (Codling Moth); assay: Example B15: Activity against Carpocapsa (Cydia) pomonella (codling moth), larvicide, feeding/contact; conditions: 336 h, application rate of 12.5 ppm, L1 larvae on sprayed diet cubes, 14 days after infestation, read-out: effect in at least one of the two categories (mortality or growth inhibition)
Procedure: Example B15: Activity Against Carpocapsa (Cydia) pomonella (Codling Moth), Larvicide, Feeding/Contact
Diet cubes coated with paraffin were sprayed with diluted test solutions in an application chamber. After drying off the treated cubes (10 replicates) were infested with 1 L1 larvae. Samples were incubated at 26-27° C. and checked 14 days after infestation for mortality and growth inhibition.

[11] = test system: Tetranychus urticae (Two-Spotted Spider Mite); assay: Example B10: Activity against Tetranychus urticae (two-spotted spider mite), sprayed bean leaf discs; conditions: foliar, 192 h, application rate of 200 ppm, mixed population (mobile stages) on bean leaf discs, 8 days after infestation
Procedure: Example B10: Activity Against Tetranychus urticae (Two-Spotted Spider Mite)
Bean leaf discs on agar in 24-well microtiter plates were sprayed with aqueous test solutions prepared from 10′000 ppm DMSO stock solutions. After drying the leaf discs were infested with a mite population of mixed ages. The samples were assessed for mortality on mixed population (mobile stages) 8 days after infestation.

[12] = test system: Plutella xylostella (Diamond Back Moth); assay: Example B5: Activity against Plutella xylostella (diamond back moth), eggs, artificial diet; conditions: 192 h, application rate of 200 ppm, 8 days after infestation, read-out: effect in at least one of the two categories (mortality or growth inhibition)
Procedure: Example B5: Activity Against Plutella xylostella (Diamond Back Moth)
as §1, with “drying, Plutella eggs were pipetted through a plastic stencil onto a gel blotting paper and” for “drying,”, “plate was closed” for “plates were infested”, “it.” for “L2 larvae (10 to 15 per well).”, “8” for “5”

CCS(=O)(=O)c1cc(OC(C)(C)C#N)cnc1-c1nc2cc(C(F)(F)F)nnc2n1C [Compound P2, 2-[[5-ethylsulfonyl-6-[7-methyl-3-(trifluoromethyl)imidazo[4,5-c]pyridazin-6-yl]-3-pyridyl]oxy]-2-methyl-propanenitrile]
≥ 80%: mortality at 12.5 ppm [1] | percent effect (mortality or growth inhibition) at 200 ppm [2] | percent effect (mortality or growth inhibition) at 200 ppm [3] | mortality at 50 ppm [4] | mortality at 200 ppm [5] | percent effect (mortality or growth inhibition) at 200 ppm [6] | mortality at 24 ppm [7] | mortality at 200 ppm [8] | percent control (mortality, anti-feedant effect or growth inhibition) at 200 ppm [9]

CCS(=O)(=O)c1cc(OC(C)(C)C#N)c(C)nc1-c1nc2cc(C(F)(F)F)cnc2n1C [Compound P4, 2-[[5-ethylsulfonyl-2-methyl-6-[3-methyl-6-(trifluoromethyl)imidazo[4,5-b]pyridin-2-yl]-3-pyridyl]oxy]-2-methyl-propanenitrile]
≥ 80%: mortality at 12.5 ppm [1] | percent effect (mortality or growth inhibition) at 200 ppm [2] | percent effect (mortality or growth inhibition) at 200 ppm [3] | mortality at 200 ppm [5] | percent effect (mortality or growth inhibition) at 12.5 ppm [10] | percent effect (mortality or growth inhibition) at 200 ppm [6] | mortality at 200 ppm [8] | percent control (mortality, anti-feedant effect or growth inhibition) at 200 ppm [9] | mortality at 200 ppm [11]

CCS(=O)(=O)c1cc(OC(C)(C)C#N)cnc1-c1nc2cc(C(F)(F)F)n(OC)c(=O)c2n1C [Compound P5, 2-[[5-ethylsulfonyl-6-[5-methoxy-3-methyl-4-oxo-6-(trifluoromethyl)imidazo[4,5-c]pyridin-2-yl]-3-pyridyl]oxy]-2-methyl-propanenitrile]
≥ 80%: mortality at 12.5 ppm [1] | percent effect (mortality or growth inhibition) at 200 ppm [2] | percent effect (mortality or growth inhibition) at 200 ppm [3] | mortality at 200 ppm [5] | percent effect (mortality or growth inhibition) at 12.5 ppm [10] | percent effect (mortality or growth inhibition) at 200 ppm [6] | mortality at 24 ppm [7] | mortality at 200 ppm [8] | percent control (mortality, anti-feedant effect or growth inhibition) at 200 ppm [9] | mortality at 200 ppm [11]

CCS(=O)(=O)c1cc(OC(C)(C)C#N)c(C)nc1-c1nc2cc(C(F)(F)F)nnc2n1C [Compound P11, 2-[[5-ethylsulfonyl-2-methyl-6-[7-methyl-3-(trifluoromethyl)imidazo[4,5-c]pyridazin-6-yl]-3-pyridyl]oxy]-2-methyl-propanenitrile]
≥ 80%: mortality at 12.5 ppm [1] | percent effect (mortality or growth inhibition) at 200 ppm [2] | percent effect (mortality or growth inhibition) at 200 ppm [3] | mortality at 50 ppm [4] | mortality at 200 ppm [5] | percent effect (mortality or growth inhibition) at 12.5 ppm [10] | percent effect (mortality or growth inhibition) at 200 ppm [6] | mortality at 24 ppm [7] | mortality at 200 ppm [8] | percent control (mortality, anti-feedant effect or growth inhibition) at 200 ppm [9]

CCS(=O)(=O)c1cc(OC(C)(C)C#N)cnc1-c1nc2cc3c(cc2n1C)OC(F)(F)O3 [Compound P15, 2-[[6-(2,2-difluoro-7-methyl-[1,3]dioxolo[4,5-f]benzimidazol-6-yl)-5-ethylsulfonyl-3-pyridyl]oxy]-2-methyl-propanenitrile]
≥ 80%: percent effect (mortality or growth inhibition) at 200 ppm [3] | percent effect (mortality or growth inhibition) at 200 ppm [12] | mortality at 200 ppm [5] | percent effect (mortality or growth inhibition) at 12.5 ppm [10] | percent effect (mortality or growth inhibition) at 200 ppm [6] | mortality at 200 ppm [8] | percent control (mortality, anti-feedant effect or growth inhibition) at 200 ppm [9]

CCS(=O)(=O)c1cc(OC(C)(C)C#N)cnc1-c1nc2cc3c(cc2o1)OC(F)(F)O3 [Compound P16, 2-[[6-(2,2-difluoro-[1,3]dioxolo[4,5-f][1,3]benzoxazol-6-yl)-5-ethylsulfonyl-3-pyridyl]oxy]-2-methyl-propanenitrile]
≥ 80%: percent effect (mortality or growth inhibition) at 200 ppm [3] | percent effect (mortality or growth inhibition) at 200 ppm [12] | mortality at 200 ppm [5] | percent effect (mortality or growth inhibition) at 12.5 ppm [10] | percent effect (mortality or growth inhibition) at 200 ppm [6] | percent control (mortality, anti-feedant effect or growth inhibition) at 200 ppm [9]
